IC50 data for 50 compounds are collected here from patent publication US20230079819A1, “COMPOUNDS AND USES THEREOF” (Foghorn Therapeutics Inc., priority 2019, published 2023).

One assay has as its target T1, BRG-1 (Homo sapiens, UniProt P51532).
T1 construct: made in house; host or cells: High Five insect cells
Nature of the assay: ATPase catalytic activity of BRG-1, ADP-Glo in vitro biochemical assay. As to conditions: ATPase catalytic activity, 30 nM BRG-1, 400 μM ATP, read-out: BRG1 IP50.

For the next assay, the target named is T2, BRM (Homo sapiens, UniProt P51531).
T2 construct: made in house; host or cells: High Five insect cells
Nature of the assay: ATPase catalytic activity of BRM, ADP-Glo in vitro biochemical assay. As to conditions: ATPase catalytic activity, 30 nM BRM, 400 μM ATP, read-out: BRM IP50. (In general: ADP-Glo turns the ADP formed in a reaction into a luminescent signal.)

T1 sequence (P51532 whole entry): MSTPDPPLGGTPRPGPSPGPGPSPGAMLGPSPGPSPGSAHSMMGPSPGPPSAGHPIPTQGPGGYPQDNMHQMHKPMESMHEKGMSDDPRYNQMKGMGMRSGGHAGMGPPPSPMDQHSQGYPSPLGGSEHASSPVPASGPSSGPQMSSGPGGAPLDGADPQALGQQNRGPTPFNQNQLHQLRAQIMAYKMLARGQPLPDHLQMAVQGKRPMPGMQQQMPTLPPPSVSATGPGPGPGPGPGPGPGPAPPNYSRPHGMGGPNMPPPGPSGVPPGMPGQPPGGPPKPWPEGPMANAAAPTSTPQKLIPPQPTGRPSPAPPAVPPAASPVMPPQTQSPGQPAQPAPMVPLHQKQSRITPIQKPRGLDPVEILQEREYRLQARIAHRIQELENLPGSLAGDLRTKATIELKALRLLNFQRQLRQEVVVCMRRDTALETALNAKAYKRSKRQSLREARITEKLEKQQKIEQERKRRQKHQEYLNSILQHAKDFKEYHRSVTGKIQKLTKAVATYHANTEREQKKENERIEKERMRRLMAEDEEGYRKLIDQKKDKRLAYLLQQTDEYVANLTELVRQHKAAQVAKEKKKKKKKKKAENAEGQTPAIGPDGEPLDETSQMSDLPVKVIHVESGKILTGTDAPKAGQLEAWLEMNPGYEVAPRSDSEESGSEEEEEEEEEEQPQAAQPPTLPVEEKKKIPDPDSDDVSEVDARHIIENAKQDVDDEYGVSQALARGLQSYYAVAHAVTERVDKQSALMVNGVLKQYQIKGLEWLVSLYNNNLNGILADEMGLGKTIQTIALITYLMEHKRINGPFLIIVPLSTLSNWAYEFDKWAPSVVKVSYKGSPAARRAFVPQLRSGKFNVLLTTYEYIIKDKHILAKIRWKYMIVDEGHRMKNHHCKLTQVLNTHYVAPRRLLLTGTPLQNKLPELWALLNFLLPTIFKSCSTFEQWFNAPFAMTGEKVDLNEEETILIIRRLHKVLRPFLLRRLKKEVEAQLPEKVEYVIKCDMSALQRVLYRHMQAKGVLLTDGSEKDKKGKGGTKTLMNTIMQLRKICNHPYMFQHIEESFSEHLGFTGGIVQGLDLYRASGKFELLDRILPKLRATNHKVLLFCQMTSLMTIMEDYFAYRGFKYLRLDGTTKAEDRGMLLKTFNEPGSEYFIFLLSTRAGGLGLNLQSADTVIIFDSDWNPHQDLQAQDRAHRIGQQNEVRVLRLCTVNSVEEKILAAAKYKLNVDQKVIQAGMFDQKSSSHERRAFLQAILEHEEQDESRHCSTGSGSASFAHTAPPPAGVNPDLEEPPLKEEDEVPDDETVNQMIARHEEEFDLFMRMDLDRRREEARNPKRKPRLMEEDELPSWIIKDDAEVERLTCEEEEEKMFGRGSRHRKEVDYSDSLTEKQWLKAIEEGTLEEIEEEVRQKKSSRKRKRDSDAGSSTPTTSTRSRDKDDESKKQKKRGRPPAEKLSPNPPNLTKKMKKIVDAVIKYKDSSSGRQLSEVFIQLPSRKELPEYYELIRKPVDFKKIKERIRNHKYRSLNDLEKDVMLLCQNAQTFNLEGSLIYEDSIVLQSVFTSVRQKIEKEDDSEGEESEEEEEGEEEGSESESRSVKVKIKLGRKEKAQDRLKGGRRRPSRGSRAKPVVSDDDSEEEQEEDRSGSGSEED
T2 sequence (P51531 whole entry): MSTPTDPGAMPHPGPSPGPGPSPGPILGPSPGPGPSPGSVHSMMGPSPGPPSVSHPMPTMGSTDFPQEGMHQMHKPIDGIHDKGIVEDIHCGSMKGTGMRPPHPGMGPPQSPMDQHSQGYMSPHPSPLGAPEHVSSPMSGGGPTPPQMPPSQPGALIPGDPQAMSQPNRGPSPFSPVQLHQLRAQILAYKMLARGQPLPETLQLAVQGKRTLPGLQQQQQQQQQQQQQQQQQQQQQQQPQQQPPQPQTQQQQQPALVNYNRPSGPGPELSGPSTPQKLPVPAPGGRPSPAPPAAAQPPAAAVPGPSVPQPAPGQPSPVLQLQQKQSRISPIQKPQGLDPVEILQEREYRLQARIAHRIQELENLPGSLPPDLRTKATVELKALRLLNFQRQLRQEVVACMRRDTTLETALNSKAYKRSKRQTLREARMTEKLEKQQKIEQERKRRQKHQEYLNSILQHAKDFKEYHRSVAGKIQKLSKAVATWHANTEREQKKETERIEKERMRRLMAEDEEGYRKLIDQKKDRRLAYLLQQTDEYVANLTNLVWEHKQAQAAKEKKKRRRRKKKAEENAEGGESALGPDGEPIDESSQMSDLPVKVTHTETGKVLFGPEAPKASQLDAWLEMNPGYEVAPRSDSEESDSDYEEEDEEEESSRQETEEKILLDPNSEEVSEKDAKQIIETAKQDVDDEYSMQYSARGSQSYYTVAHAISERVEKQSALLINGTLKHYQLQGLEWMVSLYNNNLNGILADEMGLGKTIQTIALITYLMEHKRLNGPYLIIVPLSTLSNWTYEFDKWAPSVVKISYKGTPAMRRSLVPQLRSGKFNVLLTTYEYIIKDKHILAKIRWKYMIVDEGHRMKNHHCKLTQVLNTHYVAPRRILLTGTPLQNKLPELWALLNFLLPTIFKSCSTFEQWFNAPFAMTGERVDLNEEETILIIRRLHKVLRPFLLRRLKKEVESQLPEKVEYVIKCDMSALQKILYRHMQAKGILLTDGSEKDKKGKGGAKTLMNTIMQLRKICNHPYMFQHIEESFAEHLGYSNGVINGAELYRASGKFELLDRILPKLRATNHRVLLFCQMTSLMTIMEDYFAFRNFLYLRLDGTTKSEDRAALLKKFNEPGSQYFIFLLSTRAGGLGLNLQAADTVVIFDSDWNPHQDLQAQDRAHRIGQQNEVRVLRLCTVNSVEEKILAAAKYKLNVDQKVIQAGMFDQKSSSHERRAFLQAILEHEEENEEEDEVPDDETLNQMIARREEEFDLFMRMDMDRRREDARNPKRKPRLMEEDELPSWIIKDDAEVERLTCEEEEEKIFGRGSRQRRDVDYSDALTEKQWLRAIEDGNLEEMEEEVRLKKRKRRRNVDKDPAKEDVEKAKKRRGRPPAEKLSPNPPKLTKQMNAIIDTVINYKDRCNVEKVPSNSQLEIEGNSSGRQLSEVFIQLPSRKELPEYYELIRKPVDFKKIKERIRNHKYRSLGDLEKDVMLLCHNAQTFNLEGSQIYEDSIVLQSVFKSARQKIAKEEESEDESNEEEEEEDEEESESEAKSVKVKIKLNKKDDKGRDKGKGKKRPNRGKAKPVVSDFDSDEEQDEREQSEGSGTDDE

As for `CS(=O)(=O)n1ccc(C(=O)NCC(=O)Nc2nc(-c3cccc(N4CCO[C@H](CO)C4)c3)cs2)c1` [Compound 450], the IC50 on BRG-1 and at BRM was above 10 nM each time.

Regarding `CS(=O)(=O)n1ccc(C(=O)NCC(=O)Nc2nc(-c3cccc(N4CCN(C5COC5)CC4)c3)cs2)c1` [Compound 451], the IC50 at BRG-1 and at BRM was above 100 nM in each case.

As to `CS(=O)(=O)n1ccc(C(=O)NCC(=O)Nc2nc(-c3cccc(N4CCO[C@@H](CO)C4)c3)cs2)c1` [Compound 452], the IC50 on BRG-1 and on BRM was above 10 nM each time.

Turning to `COC[C@H](NC(=O)c1ccn(C2(C)COC2)c1)C(=O)Nc1nc(-c2ccc3ccn(C)c(=O)c3c2)cs1` [Compound 453], the IC50 on BRG-1 and on BRM was above 10 nM in each case.

Take `CS(=O)(=O)n1ccc(C(=O)NCC(=O)Nc2nc(-c3cc(F)cc(OC4CC4)c3)cs2)c1` [Compound 455]: the IC50 on BRG-1 and on BRM was above 10 nM throughout.

For `C[C@@H]1CN(c2cccc(-c3csc(NC(=O)CNC(=O)c4ccn(C5(C#N)CC5)c4)n3)n2)C[C@H](C)O1` [Compound 458], the IC50 on BRG-1 was above 10 nM; at BRM it was below 10 nM.

As to `COC[C@H](NC(=O)c1ccn(S(C)(=O)=O)c1)C(=O)Nc1nc(-c2cccc(OC(F)(F)F)c2)cs1` [Compound 459], the IC50 on BRG-1 and on BRM was above 10 nM each time.

In the case of `CS(=O)(=O)n1ccc(C(=O)NCC(=O)Nc2nc(-c3cccc(N4CCC(N)C(F)(F)C4)c3)cs2)c1` (stereo not shown) [Compound 460], the IC50 at BRG-1 and at BRM was above 10 nM in each case.

As for `COC[C@H](NC(=O)c1ccn(S(C)(=O)=O)c1)C(=O)Nc1nc(-c2cccc(N3CCC3)c2)c(F)s1` [Compound 461], the IC50 at BRG-1 and on BRM was above 100 nM throughout.

For the compound `COC[C@H](NC(=O)c1ccn(S(C)(=O)=O)c1)C(=O)Nc1nc(-c2cccc(-c3ccn(C)n3)c2)cs1` [Compound 462], the IC50 on BRG-1 and at BRM was above 10 nM in each case.

With `CS(=O)(=O)n1ccc(C(=O)NCC(=O)Nc2nc(-c3cccc(C(F)(F)F)c3)cs2)c1` [Compound 463], the IC50 at BRG-1 and on BRM was above 10 nM each time.

In the case of `CC(C)(C)n1ccc(C(=O)NCC(=O)Nc2nc(-c3cccc(C4COC4)c3)cs2)c1` [Compound 464], the IC50 at BRG-1 was above 100 nM; on BRM, above 10 nM.

As for `CS(=O)(=O)n1ccc(C(=O)NCC(=O)Nc2nc(-c3cccc(C4COC4)c3)cs2)c1` [Compound 465], the IC50 on BRG-1 and at BRM was above 10 nM throughout.

Take `COC[C@H](NC(=O)c1ccn(S(C)(=O)=O)c1)C(=O)Nc1nc(-c2cccc(C3COC3)c2)cs1` [Compound 466]: the IC50 on BRG-1 and at BRM was above 10 nM in each case.

`CS(=O)(=O)n1ccc(C(=O)NCC(=O)Nc2nc(-c3ccc4c(c3)N(C3CCOC3)CC4)cs2)c1` (stereo not shown) [Compound 467]: the IC50 at BRG-1 and at BRM was above 10 nM in each case.

In the case of `CC(C)N1CCc2ccc(-c3csc(NC(=O)CNC(=O)c4ccn(S(C)(=O)=O)c4)n3)cc21` [Compound 469], the IC50 on BRG-1 and on BRM was above 100 nM each time.

For `Cn1ncc(-c2cccc(-c3csc(NC(=O)CNC(=O)c4ccn(C5(C)COC5)c4)n3)n2)n1` [Compound 470], the values for the IC50 at BRG-1 and on BRM were above 100 nM and above 10 nM, respectively.

`C[C@@H]1CN(c2cccc(-c3csc(NC(=O)CNC(=O)c4ccn(S(C)(=O)=O)c4)n3)c2)[C@@H](C)CO1` [Compound 471]: the IC50 at BRG-1 and on BRM was above 100 nM throughout.

For `CS(=O)(=O)n1ccc(C(=O)NCC(=O)Nc2nc(-c3cccc(C4CC(F)(F)C4)c3)cs2)c1` [Compound 472], the IC50 at BRG-1 and on BRM was above 10 nM each time.

Consider `N#CC1(n2ccc(C(=O)NCC(=O)Nc3nc(-c4cccc(N5CCC5)n4)cs3)c2)CC1` [Compound 473], for which the figures for the IC50 on BRG-1 and at BRM were above 100 nM and above 10 nM, respectively.

Turning to `Cn1ccc2ccc(-c3csc(NC(=O)CNC(=O)c4ccn(C5(C#N)CC5)c4)n3)cc2c1=O` [Compound 475], the IC50 on BRG-1 and at BRM was below 10 nM each time.

Consider `N#CC1(n2ccc(C(=O)NCC(=O)Nc3nc(-c4cccc(N5CCC5)c4)cs3)c2)CC1` [Compound 476], for which the IC50 on BRG-1 and at BRM was above 10 nM throughout.

In the case of `C[C@@H]1CN(c2cccc(-c3cccc(NC(=O)CNC(=O)c4ccn(S(C)(=O)=O)c4)c3F)c2)C[C@H](C)O1` [Compound 477, N-(2-((3′-(cis-2,6-dimethylmorpholino)-2-fluoro-[1,1′-biphenyl]-3-yl)amino)-2-oxoethyl)-1-(methylsulfonyl)-1H-pyrrole-3-carboxamide], the IC50 at BRG-1 and on BRM was above 100 nM throughout.

For the compound `CC1COc2ccc(-c3csc(NC(=O)CNC(=O)c4ccn(S(C)(=O)=O)c4)n3)cc2N1C` (stereo not shown) [Compound 478], the IC50 at BRG-1 and on BRM was above 10 nM each time.

Consider `CO[C@H]1C[C@@H](c2cccc(-c3csc(NC(=O)CNC(=O)c4ccn(S(C)(=O)=O)c4)n3)c2)C1` [Compound 479], for which the IC50 on BRG-1 and at BRM was above 10 nM throughout.

Turning to `CC(C)(C)n1ccc(C(=O)NCC(=O)Nc2nc(-c3cccc(C4CC(F)(F)C4)n3)cs2)c1` [Compound 481], the IC50 at BRG-1 and on BRM was above 100 nM in each case.

With `CC(C)(F)COc1cccc(-c2csc(NC(=O)CNC(=O)c3ccn(S(C)(=O)=O)c3)n2)c1` [Compound 483], the IC50 at BRG-1 and on BRM was above 10 nM in each case.

As for `CC(C)(F)COc1cccc(-c2csc(NC(=O)CNC(=O)c3ccn(C4(C)COC4)c3)n2)c1` [Compound 484], the IC50 at BRG-1 and at BRM was above 100 nM in each case.

As for `COC[C@H](NC(=O)c1ccn(C(C)(C)C)c1)C(=O)Nc1nc(-c2cc(C)c3ccn(C)c(=O)c3c2)cs1` [Compound 485], the IC50 at BRG-1 and at BRM was below 10 nM each time.

As for `CS(=O)(=O)n1ccc(C(=O)NCC(=O)Nc2nc(-c3ccc4c(c3)N(CC3COC3)CC4)cs2)c1` [Compound 486], the IC50 at BRG-1 and on BRM was above 10 nM in each case.

As for `CS(=O)(=O)n1ccc(C(=O)NCC(=O)Nc2nc(-c3ccc4c(c3)N(CC(F)F)CC4)cs2)c1` [Compound 487], the IC50 at BRG-1 and at BRM was above 10 nM in each case.

Regarding `C[C@H](NC(=O)c1ccn(C(C)(C)C)c1)C(=O)Nc1nc(-c2cccc(-c3cnn(C)n3)n2)cs1` [Compound 488], the IC50 on BRG-1 and at BRM was above 100 nM in each case.

With `CS(=O)(=O)n1ccc(C(=O)NCC(=O)Nc2nc(-c3ccnc(OC4CC4)c3)cs2)c1` [Compound 489], the IC50 on BRG-1 and at BRM was above 10 nM in each case.

On to `Cn1ncc2ccc(-c3csc(NC(=O)CNC(=O)c4ccn(C(C)(C)C)c4)n3)cc2c1=O` [Compound 492], for which the IC50 at BRG-1 and at BRM was above 10 nM throughout.

As to `Cn1ccc2ccc(-c3csc(NC(=O)CNC(=O)c4ccn(C56CC(C5)C6)c4)n3)cc2c1=O` [Compound 493], the IC50 at BRG-1 and at BRM was above 100 nM each time.

For `Cn1cnc2ccc(-c3csc(NC(=O)CNC(=O)c4ccn(C(C)(C)C)c4)n3)cc2c1=O` [Compound 494], the IC50 on BRG-1 and on BRM was above 10 nM throughout.

Turning to `CC(C)(C)n1ccc(C(=O)NCC(=O)Nc2nc(-c3cccc(C4(CO)CC4)n3)cs2)c1` [Compound 495], the figures for the IC50 on BRG-1 and on BRM were above 100 nM and above 10 nM, respectively.

Take `N#CC1(n2ccc(C(=O)NCC(=O)Nc3nc(-c4cccc(OC(F)(F)F)n4)cs3)c2)CC1` [Compound 496]: the IC50 on BRG-1 and at BRM was above 100 nM throughout.

For `CC(C)(F)COc1cccc(-c2csc(NC(=O)CNC(=O)c3ccn(C4(C#N)CC4)c3)n2)n1` [Compound 498], the IC50 at BRG-1 and on BRM was above 100 nM each time.

`CS(=O)(=O)n1ccc(C(=O)NCC(=O)Nc2nc(-c3cccc(N4CCC4)c3F)cs2)c1` [Compound 499]: the IC50 on BRG-1 and on BRM was below 10 nM throughout.

Take `CS(=O)(=O)n1ccc(C(=O)NCC(=O)Nc2nc(-c3cccc(OC(F)(F)F)c3F)cs2)c1` [Compound 501]: the IC50 was above 100 nM on BRG-1 and above 10 nM at BRM.

Turning to `CS(=O)(=O)n1ccc(C(=O)NCC(=O)Nc2nc(-c3cccc(OCC4(F)COC4)c3)cs2)c1` [Compound 502], the IC50 on BRG-1 and at BRM was above 10 nM throughout.

For the compound `CC(C)(C)n1ccc(C(=O)NCC(=O)Nc2nc(-c3cccc(OC(F)(F)F)n3)cs2)c1` [Compound 503], the IC50 at BRG-1 and at BRM was above 100 nM throughout.

As to `Cn1ccc2ccc(-c3csc(NC(=O)CNC(=O)c4ccn(C5(C)CCC5)c4)n3)cc2c1=O` [Compound 504], the IC50 at BRG-1 and on BRM was above 10 nM in each case.

As to `C[C@@]1(n2ccc(C(=O)NCC(=O)Nc3nc(-c4cccc(N5CCC5)c4)cs3)c2)CCOC1` [Compound 505], the IC50 at BRG-1 and at BRM was above 100 nM each time.

As for `C[C@]1(n2ccc(C(=O)NCC(=O)Nc3nc(-c4cccc(N5CCC5)c4)cs3)c2)CCOC1` [Compound 506], the values for the IC50 on BRG-1 and on BRM were above 100 nM and above 10 nM, respectively.

With `CS(=O)(=O)n1ccc(C(=O)NCC(=O)Nc2nc(-c3cccc(OC4CCC4)c3F)cs2)c1` [Compound 507], the IC50 on BRG-1 and at BRM was above 10 nM each time.

For `CC(C)(C)n1ccc(C(=O)NCC(=O)Nc2nc(-c3cccc(OCC4(F)COC4)c3)cs2)c1` [Compound 509], the IC50 at BRG-1 and at BRM was above 100 nM throughout.

Regarding `CC1(n2ccc(C(=O)NCC(=O)Nc3nc(-c4ccc(F)c(N5CCC5)c4)cs3)c2)COC1` [Compound 510], the IC50 at BRG-1 and on BRM was above 10 nM in each case.

As for `CS(=O)(=O)n1ccc(C(=O)NCC(=O)Nc2nc(-c3ccc(F)c(N4CCC4)c3)cs2)c1` [Compound 511], the IC50 on BRG-1 and on BRM was below 10 nM throughout.
